Experimental data from US20130096097A1, “PHARMACEUTICAL MULTIMERIC PARTICLES, AND MANUFACTURING METHOD FOR SAME” (JAPAN SCIENCE AND TECHNOLOGY AGENCY, priority 2010, published 2013).

Key:
[1] = Particle size of dimer nanoparticles in aqueous dispersion made by reprecipitation; type: physicochemical; conditions: 5 mM DMSO solution injected into water at room temperature, final concentration 0.05 mM
Protocol: (§1) Dimer of SN-38 and succinic acid was weighed out to be 5 mM, and dissolved in DMSO 150 μl. Using water as poor solvent, 100 μl of the DMSO solution was injected into water 10 ml with syringe at room temperature, thus aqueous dispersion solution of dimer nanoparticles was prepared. Final concentration of the aqueous dispersion solution was 0.05 mM. The particle size was 50 nm (FIG. 1).
as §1, with “tetramethylene diisocyanate” for “succinic acid”, “in” for “in DMSO”, “μl of DMSO.” for “μl.”, “2).” for “1).”
as §1, with “of betamethasone valerate” for “of SN-38”, “in” for “in DMSO”, “150 μl of DMSO.” for “150 μl.”, “was 150” for “was 50”, “(FIG. 2).” for “(FIG. 1).”

[2] = tested on: Human liver cancer cell lines HepG2; test: In vitro anticancer activity, cell viability by Cell Counting Kit-8; type: cell-based; conditions: for anticancer activity against HepG2 (cell viability): 0.15625-10 μM in terms of SN-38 monomer, 48 hours, FIG. 3
Protocol: Human liver cancer cell lines HepG2 was seeded on 96-well plate in 2×10^4 cells/well. Next day, irinotecan, SN-38 bulk crystal, SN-38 diester dimer nanoparticle, and SN-38 diisocyanate dimer nanoparticle were added to the HepG2 cell culture in an amount to be 0.15625, 0.3125, 0.625, 1.25, 2.5, 5 or 10 μM in terms of SN-38 monomer. After cultivating for 48 hours, the cell viability was measured by a colorimetric method using Cell Counting Kit-8 (manufactured by DOJINDO) and microplate reader (manufactured by BIO-RAD). […] In addition, it became obvious that when SN-38 was dimerized via ester bond or urethane bond, or further nanoparticulated, the anticancer activity thereof can be retained (FIG. 3).
Further, two kinds of aqueous dispersion solution of SN-38 dimer nanoparticles were left at room temperature for about one week, thus prepared aging sample.
In FIG. 3 and FIG. 4, there was no difference in the anticancer activity against HepG2 between the binding modes included in the SN-38 dimer nanoparticles, namely, ester bond and urethane bond. That is, both bonds are expected to be decomposed at about the same speed in the solution, and SN-38 monomers are formed. To confirm this, SN-38 is dimerized with low degradable ether bond, further subjected to aging, then studied the anticancer activity against HepG2. The treatment concentration at this time was made 0.1, 1, 10 μM in terms of SN-38.

[3] = cited from earlier work

Row | Compound | particle size [1] [nm] | anticancer activity against HepG2 (cell viability) [2] | other results
1 | CCc1c2c(nc3ccc(OC(=O)NCCCCNC(=O)Oc4ccc5nc6c(c(CC)c5c4)Cn4c-6cc5c(c4=O)COC(=O)C5(O)CC)cc13)-c1cc3c(c(=O)n1C2)COC(=O)C3(O)CC (centres unmarked) [Compound 18-(c), butylene bis(7-ethylcamptothecin-10-yl)amide] | 50 | remarkable anticancer activity | –
2 | CC[C@@]1(O)C(=O)OCc2c1cc1n(c2=O)Cc2cc3ccccc3nc2-1 [Camptothecin] | – | – | water-solubility [3]: extremely insoluble in water
3 | CCc1c2c(nc3ccc(OC/C=C/COc4ccc5nc6c(c(CC)c5c4)Cn4c-6cc5c(c4=O)COC(=O)C5(O)CC)cc13)-c1cc3c(c(=O)n1C2)COC(=O)C3(O)CC (centres unmarked) [Compound 18-(d), bis(7-ethylcamptothecin-10-oxy)2-buten ether] | – | – | anticancer activity against HepG2 ([2]; 0.1, 1, 10 μM in terms of SN-38, FIG. 5): almost disappeared; aging effect on anticancer activity against HepG2 ([2]; 0.1, 1, 10 μM in terms of SN-38, aged sample, FIG. 5): little
4 | CCc1c2c(nc3ccc(OC(=O)N4CCC(N5CCCCC5)CC4)cc13)-c1cc3c(c(=O)n1C2)COC(=O)[C@]3(O)CC [irinotecan, 7-ethyl-10-[4-(1-piperidino)-1-piperidino]carbonyloxycamptothecin, reference compound] | – | almost no anticancer activity | –
5 | CCCCC(=O)O[C@]1(C(=O)COC(=O)CCC(=O)OCC(=O)[C@@]2(OC(=O)CCCC)[C@@H](C)C[C@H]3[C@@H]4CCC5=CC(=O)C=C[C@]5(C)[C@@]4(F)[C@@H](O)C[C@@]32C)[C@@H](C)C[C@H]2[C@@H]3CCC4=CC(=O)C=C[C@]4(C)[C@@]3(F)[C@@H](O)C[C@@]21C [Compound 19-(b)] | 150 | – | –
6 | CCc1c2c(nc3ccc(O)cc13)-c1cc3c(c(=O)n1C2)COC(=O)[C@]3(O)CC [SN-38, 10-hydroxy-7-ethylcamptothecin, reference compound] | – | remarkable anticancer activity | water-solubility [3]: extremely poor
7 | CCc1c2c(nc3ccc(OC(=O)CCC(=O)Oc4ccc5nc6c(c(CC)c5c4)Cn4c-6cc5c(c4=O)COC(=O)C5(O)CC)cc13)-c1cc3c(c(=O)n1C2)COC(=O)C3(O)CC (centres unmarked) [Compound 18-(b), succinic acid bis(7-ethylcamptothecin-10-yl)ester] | 50 | remarkable anticancer activity | –
